In US12485106B2, “Methods of treating fibrotic liver diseases or conditions with indeglitazar” (PLEIOGENIX INC., priority 2023, dated 2025):
“Also recorded” adds a separate entry of the source.

How the values were obtained:
[1] = Parallel Artificial Membrane Permeability-Blood Brain Barrier Assay (PMBBB-096); type: in vitro ADME; details: compared to promazine HCl (high permeability control)
Protocol: Indeglitazar was evaluated using the Parallel Artificial Membrane Permeability-Blood Brain Barrier Assay (PMBBB-096; BioAssay Systems, Hayward, CA).

[2] = system: adipocyte differentiation; details: compared with full PPAR γ-agonists like pioglitazone; cited from earlier work
[3] = system: mouse model of human alcoholic hepatitis; assay: AH (NIAAA) mouse model, 8-week efficacy and safety study, alone and with prednisolone
Source text: Mice were fed with the ethanol diet for four weeks, followed by 4 weeks of intervention (8 weeks total treatment).
Livers were collected at the end-point from all mice and weighed. Liver samples were processed for histology to assess steatosis, inflammatory infiltrates and fibrosis. Briefly, liver tissue was fixed in 4% paraformaldehyde and paraffin-embedded, sectioned into 5 m thickness, and stained with hematoxylin-eosin (H&E), Oil-Red O staining, and Masson's trichrome staining.
Safety testing: The safety of indeglitazar treatment was assessed by body weight measurements and full necropsy at endpoint. Mice were terminated from the experiment by isoflurane anesthesia and blood was collected by a cardiac bleed into EDTA-treated tubes, and then centrifuged to obtain plasma to conduct clinical chemistry including full liver and renal toxicology panel. A portion of the liver was analyzed for liver triglycerides and cholesterol levels by biochemical assays. […] Hearts were weighted and fixed in 10% NBF, paraffin embedded, and sectioned into 4-μm thick slices. H&E staining was used to investigate myocardial cell hypertrophy, and ventricle diameters by microscopy.

[4] = system: carbon tetrachloride (CCl4)-treated mice model of human NAFLD, NASH, and hepatic fibrosis; assay: CCl4-treated mouse model of human NAFLD, NASH and hepatic fibrosis; type: in vivo; details: vs CCl4 vehicle
Source text: Mouse model generation and treatment. C57Bl/6 mice (6-week-old, males) were purchased from Jackson Laboratories and were housed under specific pathogen-free conditions. All experiment protocols were approved by the Institutional Animal Care and Use Committee (IACUC) of Pleiogenix, or its research partners. The mice were acclimated for a minimum of seven days prior to initiation of treatment (Sanyal A J et al., N Engl J Med, (2010), 362:1675-85). The mice were fed Purina normal chow and drinking water ad libitum during the acclimation period. After acclimation, the mice were randomized based on body weight (bw). A total of 22 mice were used; and treated as described in Table 1. Briefly, on day 0, mice were treated according to Table 4.
Liver fibrosis was induced as previously described (Nesto R W et al., Circulation, (2003), 108:2941-8). Carbon tetrachloride (CCl4), formulated in mineral oil, was administered twice per week i.p. at 1 μl/gram body weight throughout the study duration (8 wks). Indeglitazar was administered daily by oral gavage at 30 mg/kg body weight throughout the study duration (8 wks). Mice were observed daily for clinical signs. Any observations noted outside of the scheduled observations were documented as unscheduled. Assessments included, but were not be limited to, assessment of activity, posture, respiration, emesis, seizure, hydration status, injection site irritation, and overall body condition. The absence or presence of findings were recorded.
Individual body weights were recorded on all animals prior to the initiation of the study and weekly body weights were recorded. Blood was collected and plasma was measured for alanine aminotransferase (ALT) and aspartate aminotransferase (AST) and on weeks 0 (baseline), 4, and wk 8 (terminal). At the end of the study, liver necropsy was performed including weighing and processing for histology, and frozen at −80° C. for the following downstream analyses: Liver histopathology: hematoxyline and eosin (H&E) staining (Kumar P et al., PLOS ONE, (2014), 9:e110405); Sirius Red staining for fibrosis (Nesto R W et al., Circulation, (2003), 108:2941-8). Biochemical markers of human hepatic fibrosis and anti-fibrotic adipokine, adiponectin: hepatic hydroxyproline (Nesto R W et al., Circulation, (2003), 108:2941-8); plasma TGFβ1 (Fischer A H et al., CSH Protoc, (2008), 2008:pdb.prot4986); adiponectin (Guo J C et al., Zhonghua Shi Yan He Lin Chuang Bing Du Xue Za Zhi, (2008), 22:354-7).
[…]

PPARδ = target: T1, PPARδ (Homo sapiens, UniProt Q03181); details: cited from earlier work
T1 sequence (Q03181 1-441): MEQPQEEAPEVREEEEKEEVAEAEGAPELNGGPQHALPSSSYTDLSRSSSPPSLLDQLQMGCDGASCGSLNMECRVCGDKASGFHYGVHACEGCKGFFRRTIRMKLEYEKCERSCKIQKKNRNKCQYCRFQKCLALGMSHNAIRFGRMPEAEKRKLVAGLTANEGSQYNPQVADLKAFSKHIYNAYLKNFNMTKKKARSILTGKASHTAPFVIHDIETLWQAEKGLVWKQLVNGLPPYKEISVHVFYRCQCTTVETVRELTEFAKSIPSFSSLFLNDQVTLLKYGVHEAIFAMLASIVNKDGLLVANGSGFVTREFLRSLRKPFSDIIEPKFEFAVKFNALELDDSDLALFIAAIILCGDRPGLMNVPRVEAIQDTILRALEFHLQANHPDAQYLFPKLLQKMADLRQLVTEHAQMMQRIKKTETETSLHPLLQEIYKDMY

[5] = indeglitazar 50 mg/kg, prednisolone 10 mg/kg, vs EtOH-treated vehicle control
[6] = indeglitazar 50 mg/kg, prednisolone 10 mg/kg, vs ethanol-treated vehicle control
[7] = indeglitazar 50 mg/kg, prednisolone 10 mg/kg, vs vehicle+EtOH
[8] = indeglitazar 50 mg/kg/day, prednisolone 10 mg/kg/day, vs ethanol-treated vehicle control
[9] = indeglitazar 50 mg/kg/day, prednisolone 10 mg/kg/day, vs ethanol-treated vehicle control, listed as indeglitazar
[10] = 30 mg/kg/day oral gavage, 8 wks, male mice

## COc1ccc(S(=O)(=O)n2cc(CCC(=O)O)c3cc(OC)ccc32)cc1 [Indeglitazar, 3-[5-methoxy-1-(4-methoxybenzenesulfonyl)-1H-indol-3-yl]-propanoic acid]
[1]
  ability to cross the blood-brain barrier: ~15%
[2]
  promoting adipocyte differentiation: less potent
[3]; indeglitazar 50 mg/kg, prednisolone 10 mg/kg, data not shown
  liver histopathology: steatosis, hepatocellular karyomegaly, and ballooning: reduced significantly
[3]; [5]
  effect on liver hydroxyproline: significant decrease
  effect on plasma adiponectin: significant increase
[3]; [6]
  effect on ALT: significant decreases
  effect on AST: significant decreases
  effect on plasma TGFβ: significant decrease
  effect on total bilirubin: decrease; also recorded: significant decreases
[3]; [7]
  decrease of liver TG: 28%
  decrease of plasma TGFβ: 66%
  decrease of plasma TNF-α: 50%
  increase of adiponectin: 31%
[3]; indeglitazar 50 mg/kg, prednisolone 10 mg/kg, vs vehicle+EtOH, P<0.0001
  decrease of hydroxyproline: 31%
[3]; [8]
  effect on body weight: no significant effect
  effect on gamma-glutamyl transferase (GGT): no significant effect
  effect on heart weight (actual): no significant effect
  effect on heart weight divided by body weight×100: no significant effect
[3]; [9]
  effect on body weight: Neither EtOH (vs no EtOH vehicle control), indeglitazar, or prednisolone had a significant effect
  effect on heart weight (actual): Neither EtOH (vs no EtOH vehicle control), indeglitazar, or prednisolone had a significant effect
[3]; indeglitazar 50 mg/kg/day, prednisolone 10 mg/kg/day, vs ethanol-treated vehicle control, male and female mice
  effect on overall survival: significant increase; also recorded: significantly increased
[4]; [10]
  effect on liver hydroxyproline: significantly reduces
  effect on plasma TGF-β1: significantly reduces
  effect on plasma adiponectin: significantly increases
[4]; 30 mg/kg/day
  magnitude of increase of plasma adiponectin: approximately 125%
  magnitude of reduction of hydroxyproline: approximately 25%
  magnitude of reduction of plasma TGFβ1: approximately 30%
PPARδ
  agonism towards PPARδ: partial agonism
